Data published in article PMC5893419 (Bioorganic & medicinal chemistry letters, 2018).
Values after ≈ are worked out from the molar mass of the structure shown.

Experiments:
Staphylococcus spp. = assay: Antistaphylococcal activity, summary of broth microdilution MICs; format: cell-based
Micrococcus luteus SK58 = assay: microbe, parasite or virus in culture; format: cell-based
[1] = test system: VAN-resistant S. aureus (VRSA); settings: against VRSA; cited from earlier work
[2] = test system: methicillin-resistant Staphylococcus aureus (MRSA); settings: in vitro growth of MRSA; cited from earlier work
MRSA COL = assay: microbe, parasite or virus in culture; settings: Staphylococcus aureus, 20 h
[3] = range over staphylococcal strains of Table 1
[4] = range over staphylococcal strains, converted from μM

CCCCCCCSSC(=S)N(CC)CC [1i]
MIC range, antistaphylococcal activity (Staphylococcus spp.; [3]): 2 to 4 µM | MIC range, antistaphylococcal activity (Staphylococcus spp.; [4]): 0.6 to 1.2 µg/mL

CCCCCCCCSSC(=S)N(CC)CC [1j, 1-[(diethylcarbamothioyl)disulfanyl]octane]
MIC (Micrococcus luteus SK58): > 32 µM | MIC range, antistaphylococcal activity (Staphylococcus spp.; [3]): 2 to 4 µM | MIC range, antistaphylococcal activity (Staphylococcus spp.; [4]): 0.6 to 1.2 µg/mL

CCN(CC)C(=S)SSC(=S)N(CC)CC [disulfiram]
interaction with vancomycin (VAN) [1]: synergism | minimum inhibitory concentration (MIC) range [2]: 4 to 32 µg/mL

CN[C@H](CC(C)C)C(=O)N[C@H]1C(=O)N[C@@H](CC(N)=O)C(=O)N[C@H]2C(=O)N[C@H]3C(=O)N[C@H](C(=O)N[C@H](C(=O)O)c4cc(O)cc(O)c4-c4cc3ccc4O)[C@H](O)c3ccc(c(Cl)c3)Oc3cc2cc(c3O[C@@H]2O[C@H](CO)[C@@H](O)[C@H](O)[C@H]2O[C@H]2C[C@](C)(N)[C@H](O)[C@H](C)O2)Oc2ccc(cc2Cl)[C@H]1O [vancomycin]
MIC (MRSA COL): 2 µg/mL (≈ 1.38 µM)
